Reference: PMC8372184 (Synlett : accounts and rapid communications in synthetic …, 2021)

Legend:
[1] = molecular target: T1, GetF (Streptomyces sp. L-49973, UniProt E0WFM0); test: preparative-scale hydroxylation; type: cell-based; details: alpha-ketoglutarate, Fe(II)
T1 sequence (E0WFM0 1-363): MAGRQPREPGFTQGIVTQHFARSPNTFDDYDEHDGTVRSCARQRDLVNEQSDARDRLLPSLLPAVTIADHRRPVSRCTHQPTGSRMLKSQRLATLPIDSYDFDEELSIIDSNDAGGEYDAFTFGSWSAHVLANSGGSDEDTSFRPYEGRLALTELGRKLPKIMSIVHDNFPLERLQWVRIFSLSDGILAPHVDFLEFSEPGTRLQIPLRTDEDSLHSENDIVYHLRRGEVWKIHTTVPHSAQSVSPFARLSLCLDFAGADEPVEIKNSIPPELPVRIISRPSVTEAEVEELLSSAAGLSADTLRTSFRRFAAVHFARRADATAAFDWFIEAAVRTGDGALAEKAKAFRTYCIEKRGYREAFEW

[2] = molecular target: T2, GetI (Streptomyces sp. L-49973, UniProt E0WFM2); test: preparative-scale 4-hydroxylation; type: cell-based; details: alpha-ketoglutarate, Fe(II)
T2 sequence (E0WFM2 1-345): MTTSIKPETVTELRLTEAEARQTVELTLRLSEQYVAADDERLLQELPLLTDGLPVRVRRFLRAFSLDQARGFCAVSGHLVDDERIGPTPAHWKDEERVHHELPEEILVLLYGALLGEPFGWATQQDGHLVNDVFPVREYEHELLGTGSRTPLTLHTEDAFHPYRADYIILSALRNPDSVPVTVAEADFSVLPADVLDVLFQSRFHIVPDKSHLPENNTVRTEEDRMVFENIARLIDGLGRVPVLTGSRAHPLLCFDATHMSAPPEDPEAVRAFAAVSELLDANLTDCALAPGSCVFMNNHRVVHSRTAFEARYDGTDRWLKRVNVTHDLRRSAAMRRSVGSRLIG

[3] = molecular target: T1, GetF; test: C3 hydroxylation, product isolated after Boc protection; type: cell-based; details: alpha-ketoglutarate, Fe(II)
[4] = molecular target: T3, GlbB (Caldimonas brevitalea, UniProt A8KCI8); test: 4-hydroxylation; type: biochemical; details: alpha-ketoglutarate, Fe(II)
T3 sequence (A8KCI8 1-286): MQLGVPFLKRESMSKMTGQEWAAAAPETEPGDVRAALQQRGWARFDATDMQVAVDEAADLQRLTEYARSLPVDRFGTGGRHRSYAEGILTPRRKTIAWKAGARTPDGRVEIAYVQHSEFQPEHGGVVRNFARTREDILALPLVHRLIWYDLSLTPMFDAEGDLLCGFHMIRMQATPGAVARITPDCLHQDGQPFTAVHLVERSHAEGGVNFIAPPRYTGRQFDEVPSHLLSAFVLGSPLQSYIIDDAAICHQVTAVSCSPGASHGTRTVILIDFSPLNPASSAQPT

[5] = molecular target: T4, KDO1 (Catenulispora acidiphila, UniProt C7QJ42); test: gram-scale 3-hydroxylation in E. coli lysate; type: biochemical; details: alpha-ketoglutarate, Fe(II)
T4 sequence (C7QJ42 1-358): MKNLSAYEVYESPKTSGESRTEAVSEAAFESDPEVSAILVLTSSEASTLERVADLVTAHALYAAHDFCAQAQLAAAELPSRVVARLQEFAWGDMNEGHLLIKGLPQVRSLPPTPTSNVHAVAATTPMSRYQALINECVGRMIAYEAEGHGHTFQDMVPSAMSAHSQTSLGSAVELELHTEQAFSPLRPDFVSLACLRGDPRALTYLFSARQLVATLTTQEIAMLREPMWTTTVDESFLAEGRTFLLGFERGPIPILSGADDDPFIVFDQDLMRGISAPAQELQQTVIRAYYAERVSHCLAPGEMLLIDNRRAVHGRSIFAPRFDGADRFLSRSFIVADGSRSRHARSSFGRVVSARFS

[6] = molecular target: T5, GriE (Streptomyces muensis, UniProt A0A0E3URV8); test: LCMS of C5 hydroxylation; type: biochemical; details: alpha-ketoglutarate, Fe(II), ascorbate
T5 sequence (A0A0E3URV8 1-270): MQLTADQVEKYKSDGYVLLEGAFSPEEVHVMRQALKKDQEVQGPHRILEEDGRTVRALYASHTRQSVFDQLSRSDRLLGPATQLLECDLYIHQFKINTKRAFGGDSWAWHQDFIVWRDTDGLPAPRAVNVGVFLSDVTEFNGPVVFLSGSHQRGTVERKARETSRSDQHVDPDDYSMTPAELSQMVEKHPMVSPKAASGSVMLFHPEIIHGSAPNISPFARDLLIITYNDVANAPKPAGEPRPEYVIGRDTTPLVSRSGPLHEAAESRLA

O=C(O)[C@@H]1CCCCN1 [L-Pip]
preparative-scale hydroxylation [1]: Biocatalytic hydroxylation of L-Pip and L-Cit was performed on preparative scale with GetF and GetI

NC(=O)NCCC[C@H](N)C(=O)O [L-Cit]
preparative-scale 4-hydroxylation [2]: Biocatalytic hydroxylation of L-Pip and L-Cit was performed on preparative scale with GetF and GetI

C[C@H]1CCN[C@@H]1C(=O)O [compound 15, proline derivative 15]
C3 hydroxylation, product isolated after Boc protection [3]: The final C3 hydroxylation was performed with GetF

NCCCC[C@H](N)C(=O)O [L-lysine]
4-hydroxylation [4]: GlbB was shown to be a highly efficient enzyme capable of hydroxylating L-lysine
gram-scale 3-hydroxylation in E. coli lysate [5]: optimizing the biocatalytic hydroxylation with lysates of E. coli expressing KDO1

CC(C)C[C@H](N)C(=O)O [L-leucine]
LCMS of C5 hydroxylation [6]: GriE revealed a highly active enzyme that is capable of hydroxylating L-leucine
